According to US20130023504A1, “Modulation of Prostaglandin/Cyclooxygenase Metabolic Pathways” (HUNTER-FLEMING LIMITED, priority 2006, published 2013):
Marks after values point to notes of the source that are not given here.

System: COX-2 mRNA
Experiment: COX-2 mRNA in human PBMC with and without TNF-α, quantitative RT-PCR
Assay type: cell-based
Procedure: Whole blood was collected from donors in EDTA-supplemented pouches at the Etablissement Français du Sang (Brest, France). The PBMC were isolated then from whole blood under sterile conditions within 36 hours after collection. Gradient density centrifugation was carried out on Ficoll (Eurobio). After washing in RPMI 1640 medium (Eurobio), cells were suspended in RPMI 1640 medium supplemented with 10% heat-inactivated fetal calf serum (Eurobio), 2 mM glutamine (D. Dutscher), 100 U of penicillin/ml (D. Dutscher), and 100 μg of streptomycin/ml (D. Dutscher). Monocytes were selected by plastic adherence for 1 h and approximately 10^7 cells were plated in 6-well tissue culture plates (3 mL medium per well). All incubations were performed in a humidified incubator at 37° C. and 5% CO2. Cells were recovered and dispersed in 2 ml fresh incubation medium supplemented with either 7β-hydroxyEPIA, 7β-hydroxy-DHEA, or 7α-hydroxy-DHEA (in 20 μL ethanol) in the presence or absence of 0.01 μg/mL TNF-α (Sigma-Aldrich). Control incubations contained 20 μl ethanol but no steroid. Supernatants were collected after 4 h and 24 hours incubations for measurement of their PG contents and cells were used for subsequent RNA isolation. A single step extraction method using the Trizol Reagent (Invitrogen, Cergy-Pontoise, France) provided total RNA.
cDNAs were synthesized from TURBO DNase I—treated RNA (Ambion, Huntingdon, UK) using the Superscript first strand synthesis system kit (Invitrogen). RT-PCR amplification mixtures (50 μL) contained 2.5× RealMaster Mix/20×SYBR solution (11.25 μL) (Eppendorf, Le Pecq, France) and 200 nM forward and reverse primers. Reactions were run on a RealPlex ep gradient S mastercycler (Eppendorf). The cycling conditions were 10 minutes at 95° C. and 45 cycles at 95° C., 55° C. and 68° C. for 15 seconds, 30 seconds and 30 seconds, respectively. Each assay included a standard curve of four serial dilution points of control cDNA. The HPRT1 housekeeping gene was used for quantification. All oligonucleotide primers (Table 2) were synthesized by Genecust/Distribio (Evry, France). The specificity of the amplified product was monitored by examining the melting curve of the product and confirmed by analysis on agarose gel electrophoresis.
All assays were carried out in triplicate and results were plotted as mean±S.E.M. One-way analysis of variance was performed followed by Duncan's multiple range tests in order to compare the differences between groups. Differences were considered statistically significant when p<0.05.

CC12CCC3C(C1CCC2=O)[C@@H](O)C[C@H]1C[C@@H](O)CCC31C (stereo partly drawn) [Compound 7β-OH-EPIA, 7β-hydroxy-EPIAndrosterone]
COX-2 (mRNA), mRNA production relative to controls (1 nM + TNF-α (10 ng/mL), 4 h): 7.39 ± 0.282^c | COX-2 (mRNA), mRNA production relative to controls (1 nM + TNF-α (10 ng/mL), 24 h): 2.74 ± 0.555^c | COX-2 (mRNA), mRNA production relative to controls (1 nM, 4 h, without TNF-α): 0.56 ± 0.072^b | COX-2 (mRNA), mRNA production relative to controls (1 nM, 24 h, without TNF-α): 0.82 ± 0.27^b | COX-2 (mRNA), mRNA production relative to controls (10 nM + TNF-α (10 ng/mL), 4 h): 2.75 ± 0.147^d | COX-2 (mRNA), mRNA production relative to controls (10 nM + TNF-α (10 ng/mL), 24 h): 0.94 ± 0.194^d | COX-2 (mRNA), mRNA production relative to controls (10 nM, 4 h, without TNF-α): 0.94 ± 0.048 | COX-2 (mRNA), mRNA production relative to controls (10 nM, 24 h, without TNF-α): 1.66 ± 0.408 | COX-2 (mRNA), mRNA production relative to controls (100 nM + TNF-α (10 ng/mL), 4 h): 5.76 ± 0.660 | COX-2 (mRNA), mRNA production relative to controls (100 nM + TNF-α (10 ng/mL), 24 h): 0.67 ± 0.132^d | COX-2 (mRNA), mRNA production relative to controls (100 nM, 4 h, without TNF-α): 1.10 ± 0.108 | COX-2 (mRNA), mRNA production relative to controls (100 nM, 24 h, without TNF-α): 1.05 ± 0.214
